From patent publication US9193719B2, “1,2,4-triazol-5-ones and analogs exhibiting anti-cancer and anti-proliferative activities” (Deciphera Pharmaceuticals, LLC, priority 2013, dated 2015)

Tests used:
[1] = target: T1, unphosphorylated c-FMS kinase (uFMS, Seq. ID no. 1) (Homo sapiens, UniProt P07333); assay: uFMS kinase enzymatic assay (pyruvate kinase/lactate dehydrogenase coupled); format: biochemical; settings: ATP 500 μM, rate 3 to 4 h
T1 construct: purchased Millipore
T1 sequence (P07333 538-972): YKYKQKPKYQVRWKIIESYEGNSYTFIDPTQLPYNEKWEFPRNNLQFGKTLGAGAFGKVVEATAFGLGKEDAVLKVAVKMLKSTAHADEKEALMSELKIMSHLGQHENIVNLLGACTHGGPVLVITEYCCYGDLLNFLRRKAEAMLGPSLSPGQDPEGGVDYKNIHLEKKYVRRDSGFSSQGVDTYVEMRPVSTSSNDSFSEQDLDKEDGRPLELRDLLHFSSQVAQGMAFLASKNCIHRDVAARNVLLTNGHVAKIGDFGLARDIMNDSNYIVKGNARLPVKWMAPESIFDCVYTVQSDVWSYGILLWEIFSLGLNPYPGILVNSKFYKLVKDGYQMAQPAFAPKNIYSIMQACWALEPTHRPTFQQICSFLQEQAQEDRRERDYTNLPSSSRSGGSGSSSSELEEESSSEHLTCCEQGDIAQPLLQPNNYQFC
Protocol: uFMS Kinase (Seq. ID No. 1) Assay
Activity of unphosphorylated c-FMS kinase (uFMS, Seq. ID no. 1) was determined by following the production of ADP from the FMS kinase reaction with ATP and poly E4Y as substrates through coupling with the pyruvate kinase/lactate dehydrogenase system (e.g., Schindler et al. Science (2000) 289: 1938-1942). In this assay, the oxidation of NADH (thus the decrease at A340 nm) was continuously monitored spectrophometrically. The reaction mixture (100 μL) contained FMS (purchased from Millipore) (10 nM), polyE4Y (1 mg/mL), MgCl2 (10 mM), pyruvate kinase (4 units), lactate dehydrogenase (0.7 units), phosphoenol pyruvate (1 mM), NADH (0.28 mM) and ATP (500 μM) in 90 mM Tris buffer containing 0.2% octyl-glucoside and 1% DMSO, pH 7.5. The inhibition reaction was started by mixing serial diluted test compound with the above reaction mixture. The absorption at 340 nm was monitored continuously for 4 hours at 30° C. on Synergy 2 plate reader. The reaction rate was calculated using the 3 to 4 h time frame. Percent inhibition was obtained by comparison of reaction rate with that of a control (i.e. in the absence of test compound). IC50 values were calculated from a series of percent inhibition values determined at a range of inhibitor concentrations using software routines as implemented in the GraphPad Prism software package.

[2] = target: T2, unphosphorylated PDGFRβ kinase (uPDGFRβ, Seq. ID No. 3) (Homo sapiens, UniProt P09619); assay: uPDGFRβ kinase enzymatic assay (pyruvate kinase/lactate dehydrogenase coupled); format: biochemical; settings: ATP 500 μM, rate 1.5 to 2.5 h
T2 construct: purchased DeCode
Protocol: Unphosphorylated PDGFRβ (uPDGFRβ) Kinase (Seq. ID No. 3) Assay
Activity of unphosphorylated PDGFRβ kinase (uPDGFRβ, Seq. ID No. 3) was determined by following the production of ADP from the kinase reaction with ATP and poly E4Y as substrates through coupling with the pyruvate kinase/lactate dehydrogenase system (e.g., Schindler et al. Science (2000) 289: 1938-1942). In this assay, the oxidation of NADH (thus the decrease at A340 nm) was continuously monitored spectrophometrically. The reaction mixture (100 μL) contained PDGFRβ (DeCode, 15.7 nM), polyE4Y (2.5 mg/mL), MgCl2 (10 mM), pyruvate kinase (4 units), lactate dehydrogenase (0.7 units), phosphoenol pyruvate (1 mM) and NADH (0.28 mM) and ATP (500 μM) in a 90 mM Tris buffer containing 0.2% octyl-glucoside and 1% DMSO, at pH 7.5. The inhibition reaction was started by mixing serial diluted test compound with the above reaction mixture. The absorption at 340 nm was monitored continuously for 4 h at 30° C. on a Polarstar Optima or Synergy 2 plate reader. The reaction rate was calculated using the 1.5 to 2.5 h time frame. Percent inhibition was obtained by comparison of reaction rate with that of a control (i.e. with no test compound). IC50 values were calculated from a series of percent inhibition values determined at a range of inhibitor concentrations using software routines as implemented in the GraphPad Prism software package.

osteoclast precursors = assay: Osteoclast tartrate-resistant acid phosphatase assay; format: cell-based; settings: RANKL and M-CSF, 7-14 days, tartrate-resistant acid phosphatase activity
Protocol: Osteoclast Tartrate-Resistant Acid Phosphatase Assay
A serial dilution of test compound was dispensed into a 384-well black clear bottom plate (Nalge Nunc International, Rochester, N.Y.). Compound was diluted by the addition of DMEM media supplemented with 10% characterized fetal bovine serum (Invitrogen, Carlsbad, Calif.). Diluted compound was transferred to a 384-well black clear bottom plate. Two-thousand five hundred osteoclast precursors (Lonza, Walkersville, Md.) were added per well in growth media containing Receptor Activator of Nuclear Factor Kappa-beta ligand (RANKL) and M-CSF (R&D Systems, Minneapolis, Minn.). Plates were incubated for 7-14 days at 37 degrees Celsius, 5% CO2, and 95% humidity to allow differentiation of osteoclast precursors. At the end of the incubation period, 10 μL of supernatant from each well was transferred to a clear 384-well plate. Tartrate-resistant acid phosphatase activity in the supernatant samples was determined using an acid phosphatase assay kit (Sigma, St. Louis, Mo.). Absorbance was measured at 550 nm using a plate reader. Data was analyzed using Prism software (Graphpad, San Diego, Calif.) to calculate IC50 values.

[3] = tested on: phospho-FMS in THP-1 cells; assay: Phospho-FMS ELISA assay in THP-1 cells; format: cell-based; settings: Homo sapiens, 4 h compound, M-CSF stimulation 5 min, read-out: pFMS inhibition in THP-1 cells
Protocol: THP-1 cells (catalog #TIB-202) were obtained from the ATCC. Briefly, cells were grown in RPMI 1640 supplemented with 10% characterized fetal bovine serum, 1% sodium pyruvate, 1% Penicillin-Streptomycin-Glutamine (PSG) and 55 uM 2-mercaptoethanol (Invitrogen, Carlsbad, Calif.) at 37 degrees Celsius, 5% CO2, 95% humidity. Cells were allowed to expand until reaching 70-95% confluency at which point they were subcultured or harvested for assay use.
A serial dilution of test compound was diluted 1:100 in assay medium (RPMI 1640 supplemented with 10% characterized fetal bovine serum) in a 96 well black clear bottom plate (Corning, Corning, N.Y.). In a separate 96 well black clear bottom plate, one hundred and fifty thousand THP-1 cells were added per well in 100 μL in assay medium. Fifty microliters of diluted compound was then added to the cells. Plates were incubated for 4 hours at 37 degrees Celsius, 5% CO2, 95% humidity. At the end of the incubation period, cells were stimulated with 50 μL of a 100 nM solution of recombinant human M-CSF (catalog #216-MC, R & D Systems, Minneapolis, Minn.) in assay medium and the plate was incubated for 5 minutes at 37 degrees Celsius, 5% CO2, 95% humidity. Lysates were prepared and used to perform the phospho-FMS ELISA as described by the manufacturer (catalog #DYC3268, R & D Systems, Minneapolis, Minn.). GraphPad Prism was used to calculate IC50 values obtained from data generated from the ELISA assay.

T2 sequence (P09619 557-1106): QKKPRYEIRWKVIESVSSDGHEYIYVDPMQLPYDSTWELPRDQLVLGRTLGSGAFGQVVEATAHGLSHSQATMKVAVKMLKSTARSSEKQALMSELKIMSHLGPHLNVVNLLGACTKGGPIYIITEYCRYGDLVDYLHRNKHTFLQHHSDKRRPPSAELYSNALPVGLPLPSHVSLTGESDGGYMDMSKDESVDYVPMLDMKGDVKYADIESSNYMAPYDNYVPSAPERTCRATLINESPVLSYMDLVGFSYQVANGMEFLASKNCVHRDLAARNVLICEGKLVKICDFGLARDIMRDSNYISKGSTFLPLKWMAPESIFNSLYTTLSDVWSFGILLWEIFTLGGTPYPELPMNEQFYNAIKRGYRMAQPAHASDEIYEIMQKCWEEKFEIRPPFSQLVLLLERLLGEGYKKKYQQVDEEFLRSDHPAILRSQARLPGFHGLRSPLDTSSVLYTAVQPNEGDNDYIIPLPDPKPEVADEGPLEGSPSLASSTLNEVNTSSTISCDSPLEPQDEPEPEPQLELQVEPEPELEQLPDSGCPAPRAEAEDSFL

With `Cc1nc(-n2nc(Cc3ccc(F)cc3)[nH]c2=O)ccc1Oc1ccnc(-c2cnn(C)c2)c1` [Example 1, 3-(4-fluorobenzyl)-1-(6-methyl-5-((2-(1-methyl-1H-pyrazol-4-yl)pyridin-4-yl)oxy)pyridin-2-yl)-1H-1,2,4-triazol-5(4H)-one] the IC50 [1] was ≤ 10 nM, the IC50 [2] was 100 to 1000 nM and the IC50 (osteoclast precursors) was 10 to 100 nM. The IC50 [3] was 10 to 100 nM.

With `Cc1nc(-n2nc(Cc3ccccc3)[nH]c2=O)ccc1Oc1ccnc(-c2cnn(C)c2)c1` [Example 2, 3-benzyl-1-(6-methyl-5-((2-(1-methyl-1H-pyrazol-4-yl)pyridin-4-yl)oxy)pyridin-2-yl)-1H-1,2,4-triazol-5(4H)-one] the IC50 [1] was ≤ 10 nM, the IC50 [2] was 100 to 1000 nM and the IC50 (osteoclast precursors) was 10 to 100 nM. The IC50 [3] was ≤ 10 nM.

With `Cn1cc(-c2cc(Oc3ccc(-n4nc(Cc5ccc(F)cc5)[nH]c4=O)nc3)ccn2)cn1` [Example 3, 3-(4-fluorobenzyl)-1-(5-((2-(1-methyl-1H-pyrazol-4-yl)pyridin-4-yl)oxy)pyridin-2-yl)-1H-1,2,4-triazol-5(4H)-one] the IC50 [1] was ≤ 10 nM, the IC50 [2] was 10 to 100 nM and the IC50 (osteoclast precursors) was 10 to 100 nM. The IC50 [3] was 10 to 100 nM.

`Cn1cc(-c2cc(Oc3ccc(-n4nc(C(C)(C)C)[nH]c4=O)nc3)ccn2)cn1` [Example 4, 3-(tert-butyl)-1-(5-((2-(1-methyl-1H-pyrazol-4-yl)pyridin-4-yl)oxy)pyridin-2-yl)-1H-1,2,4-triazol-5(4H)-one] was tested, and the IC50 [1] was ≤ 10 nM, the IC50 [2] was > 1000 nM and the IC50 (osteoclast precursors) was 10 to 100 nM. It also gave an IC50 [3] of 10 to 100 nM.

`Cc1nc(-n2nc(C(C)C)[nH]c2=O)ccc1Oc1ccnc(-c2cnn(C)c2)c1` [Example 5, 3-isopropyl-1-(6-methyl-5-((2-(1-methyl-1H-pyrazol-4-yl)pyridin-4-yl)oxy)pyridin-2-yl)-1H-1,2,4-triazol-5(4H)-one] was tested, and the IC50 [1] was 10 to 100 nM, the IC50 [2] was > 1000 nM and the IC50 (osteoclast precursors) was 10 to 100 nM. For the same compound, the IC50 [3] was 10 to 100 nM.

`Cc1nc(-n2nc(C3CCCCC3)[nH]c2=O)ccc1Oc1ccnc(-c2cnn(C)c2)c1` [Example 6, 3-cyclohexyl-1-(6-methyl-5-((2-(1-methyl-1H-pyrazol-4-yl)pyridin-4-yl)oxy)pyridin-2-yl)-1H-1,2,4-triazol-5(4H)-one] was tested, and the IC50 [1] was ≤ 10 nM, the IC50 [2] was 100 to 1000 nM and the IC50 (osteoclast precursors) was 10 to 100 nM. For the same compound, the IC50 [3] was ≤ 10 nM.

With `Cc1nc(-n2nc(C(C)(C)C)[nH]c2=O)ccc1Oc1ccnc(-c2cnn(C)c2)c1` [Example 7, 3-(tert-butyl)-1-(6-methyl-5-((2-(1-methyl-1H-pyrazol-4-yl)pyridin-4-yl)oxy)pyridin-2-yl)-1H-1,2,4-triazol-5(4H)-one] the IC50 [1] was ≤ 10 nM, the IC50 [2] was > 1000 nM and the IC50 (osteoclast precursors) was 10 to 100 nM. For the same compound, the IC50 [3] was 10 to 100 nM.

For `Cc1cc(-c2cc(Oc3ccc(-n4nc(C(C)(C)C)[nH]c4=O)nc3C)ccn2)ccn1` [Example 9, 3-(tert-butyl)-1-(6-methyl-5-((2′-methyl-[2,4′-bipyridin]-4-yl)oxy)pyridin-2-yl)-1H-1,2,4-triazol-5(4H)-one], the IC50 [1] was 10 to 100 nM, the IC50 [2] was > 1000 nM and the IC50 (osteoclast precursors) was 10 to 100 nM. For the same compound, the IC50 [3] was 10 to 100 nM.

`Cc1ccc(-c2cc(Oc3ccc(-n4nc(C(C)(C)C)[nH]c4=O)nc3C)ccn2)cn1` [Example 10, 3-(tert-butyl)-1-(6-methyl-5-((6′-methyl-[2,3′-bipyridin]-4-yl)oxy)pyridin-2-yl)-1H-1,2,4-triazol-5(4H)-one] was tested, and the IC50 [1] was 10 to 100 nM, the IC50 [2] was > 1000 nM and the IC50 (osteoclast precursors) was 10 to 100 nM. For the same compound, the IC50 [3] was 10 to 100 nM.

`Cc1nc(-n2nc(C(C)(C)C)n(C)c2=O)ccc1Oc1ccnc(-c2cnn(C)c2)c1` [Example 13, 3-(tert-butyl)-4-methyl-1-(6-methyl-5-((2-(1-methyl-1H-pyrazol-4-yl)pyridin-4-yl)oxy)pyridin-2-yl)-1H-1,2,4-triazol-5(4H)-one] was tested, and the IC50 [1] was 10 to 100 nM, the IC50 [2] was > 1000 nM and the IC50 (osteoclast precursors) was 100 to 1000 nM. It also gave an IC50 [3] of 100 to 1000 nM.

With `Cc1nc(-n2nc(C(C)(C)C)[nH]c2=O)ccc1Oc1ccnc(-c2ccc(C3CCN(C)CC3)cc2)c1` [Example 14, 3-(tert-butyl)-1-(6-methyl-5-((2-(4-(1-methylpiperidin-4-yl)phenyl)pyridin-4-yl)oxy)pyridin-2-yl)-1H-1,2,4-triazol-5(4H)-one] the IC50 [1] was ≤ 10 nM, the IC50 [2] was > 1000 nM and the IC50 (osteoclast precursors) was ≤ 10 nM. It also gave an IC50 [3] of 10 to 100 nM.

`COC(C)(C)c1nn(-c2ccc(Oc3ccnc(-c4cnn(C)c4)c3)c(C)n2)c(=O)[nH]1` [Example 16, 3-(2-methoxypropan-2-yl)-1-(6-methyl-5-((2-(1-methyl-1H-pyrazol-4-yl)pyridin-4-yl)oxy)pyridin-2-yl)-1H-1,2,4-triazol-5(4H)-one] was tested, and the IC50 [1] was 10 to 100 nM, the IC50 [2] was > 1000 nM and the IC50 (osteoclast precursors) was 10 to 100 nM. For the same compound, the IC50 [3] was 100 to 1000 nM.

With `Cc1nc(-n2nc(C3CCOCC3)[nH]c2=O)ccc1Oc1ccnc(-c2cnn(C)c2)c1` [Example 20, 1-(6-methyl-5-((2-(1-methyl-1H-pyrazol-4-yl)pyridin-4-yl)oxy)pyridin-2-yl)-3-(tetrahydro-2H-pyran-4-yl)-1H-1,2,4-triazol-5(4H)-one] the IC50 [1] was ≤ 10 nM, the IC50 [2] was > 1000 nM and the IC50 (osteoclast precursors) was 100 to 1000 nM. For the same compound, the IC50 [3] was 100 to 1000 nM.

In the case of `Cc1nc(-n2nc(CC(C)C)[nH]c2=O)ccc1Oc1ccnc(-c2cnn(C)c2)c1` [Example 22, 3-isobutyl-1-(6-methyl-5-((2-(1-methyl-1H-pyrazol-4-yl)pyridin-4-yl)oxy)pyridin-2-yl)-1H-1,2,4-triazol-5(4H)-one], the IC50 [1] is reported as ≤ 10 nM, the IC50 [2] is reported as > 1000 nM and the IC50 (osteoclast precursors) is reported as 10 to 100 nM. For the same compound, the IC50 [3] was ≤ 10 nM.
